Patent US5691338A, “1,2-dithiole-3 thiones for the treatment of reverse transcriptase-dependent viral infections” (priority 1995, dated 1997)
Entries after “also recorded” stand apart in the source; their conditions may differ. Where two headings read alike, the source gives them in different places.

Columns and labels:
[1] = test system: quinone reductase (QR) in H9 cells; experiment: Elevation of quinone reductase (QR) in H9 cells; format: cell-based, human; settings: for fold induction at 30 µM / fold induction at 60 µM / fold induction at 120 µM: Homo sapiens, read-out: Quinone reductase, treated to control value
Description: Five ml of medium was added to T-25 flasks and DMSO containing tests compounds were added to a final concentration of 0.1%. Control medium contained 0.1% DMSO. After the drugs were added, 5×10^6 cells in 5 ml of medium was added to each T-25 flask. The cells were grown at 37° C. in a humidified incubator supplemented with 5% CO2 until harvested (N=3 flasks/group). At the indicated times, cells were isolated by centrifugation (500×g×10 min) and were washed three times by adding 10 ml of ice-cold DPBS, mixing, and centrifuging in a refrigerated centrifuge (500×g×10 min) to isolate the cell pellets. The cells were then lysed by the addition of 400 μl of ice-cold DPBS containing 0.5% Triton X-100 and vortexing. Supernatants were then isolated by centrifuging the lysates (5000×g×20 min). Samples were kept on ice or refrigerated until the reagents for QR or GSH spectrophotometric assays were added to the aliquoted microtiter plates. QR levels were determined by aliquoting 10 μl/well of supernatant in a 96-well plate and measuring the activity by the assay described by Prochaska and Santamaria (20) except that the final NADP^+ concentration was 200 μM (21). Samples were assayed in quadruplicate, and dicoumarol inhibitable-rates (which generally represented less than 5% of the total rate) were also measured. Spectrophotometric blanks contained 10 μl of DPBS with 0.5% Triton X-100. For the GSH assay, 300 μl of sample was placed in a centricon-10microconcentrator and centrifuged (5000×g×45 min) until enough ultrafiltrate could be collected. 50 μl/well of sample in quadruplicate was placed in a 96 well "half-area" plate after which 20 μl of 1 mM Ellman's reagent dissolved in DPBS was added. The yellow color (22) developed within 5 min and was scanned with a uvmax microtiter scanner (Palo Alto, Calif.) at 405 nm. Spectrophotometric blanks contained 50 μl DPBS with 0.5% Triton X-100 and 20 μl of 1 mM Ellman's reagent in DPBS. The optical densities of the specimens were calibrated to a GSH standard curve. Protein contents were determined in 3 ml cuvettes by the Bradford method (23). The protein content in the ultrafiltrates employed for GSH determinations were negligible (<0.01 mg/ml).
We confirmed that the induction of QR in microtiter wells mirrored our results in T-25 flasks by using the method of Prochaska and Santamaria (20). Medium (100 μl) containing 0.1% final concentration DMSO was added to all wells except columns designated to contain the highest concentration of drug or spectrophotometric blanks in duplicate sets of U-bottomed microtiter plates. 200 μl of media containing drug (final DMSO concentration=0.1%) was added to the empty column of wells and then diluted in 2-fold serial dilutions across. After the serial dilutions were performed, 100 μl of media containing 1×10^6 cells/ml was added to each well, and the plates were placed in a 37° C. incubator for 48 h. One set of plates was assayed as described (21) for QR activity, the other was assayed for cell number by the method for Alley et al. (24).

[2] = target: T1, HIV-1 reverse transcriptase (RT) (Human immunodeficiency virus type 1 group M subtype B, UniProt P04585); experiment: Time-dependent (irreversible) inhibition of HIV-1 reverse transcriptase after preincubation; format: biochemical
T1 construct: Recombinant HIV-1 reverse transcriptase (RT) was obtained from Worthington (Freehold, N.J.); purchased Worthington (Freehold, N.J.)
Description: FIG. 6. […] RT was preincubated for the times indicated with oltipraz dissolved in DPBS containing 1 mg/ml bovine serum albumin, 0.13% DMSO, and either 4 μM TTP or 5 μg/ml poly(A):2.5 μg/ml oligo(dT). After incubation, 10 μl aliquots in triplicate were added to 25 μl of a reaction cocktail containing 4 μM TTP, 5 μg/ml poly(A), and 2.5 μg/ml oligo(dT) and assayed for TTP incorporation into DNA over 30 min. as described by Flexner, et al. (25). The insets are Kitz-Wilson transformations (41).
Reverse transcriptase assays were performed as described by Flexner, et al. (25) using recombinant HIV-1 RT as the source of enzyme. Dilutions and assay were carried out in 96-well "half-area" plates. The enzyme with various concentrations of test compounds were dissolved in DPBS containing 1% w/v BSA and diluted in 50 μl volumes; 10 μl aliquots in triplicate were transferred to another plate for the enzyme assay. The reactions were initiated by the addition of 25 μl/well of buffer containing 50 mM Tris.cndot.Cl (pH 8.0), 75 mM KCl, 1 mM dithiothreitol, 2 mM MgCl2, 5 μg/ml poly(A), 2.5 μg/ml oligo (dT), 10 μCi/ml ^32 p TTP with or without unlabeled TTP. […] TTP incorporation was measured by spotting 20 μl of the reaction cocktail onto DE81 paper, washing the paper with 4×5 min washes of 300 mM NaCl and 30 mM sodium citrate (pH 7.0), drying the paper, and counting the paper by liquid scintillation counting. The assays performed with oltipraz and 1,2-dithiole-3-thione contained 0.29% final concentration DMSO.

[3] = single 250 mg dose, adults, cited from earlier work

Cc1c(-c2cnccn2)ssc1=S [compound 11, 4-methyl-5-(2-pyrazinyl)-1,2-dithiole-3-thione]
Quinone Reductase Specific Activity ([1]; 24 h, 30 μM): 62.0 ± 2.0 nmol/min/mg | Quinone Reductase Specific Activity ([1]; 24 h, 60 μM): 83.5 ± 1.7 nmol/min/mg | Quinone Reductase Specific Activity ([1]; 24 h, 120 μM): 109 ± 28 nmol/min/mg | Quinone Reductase Specific Activity ([1]; 48 h, 30 μM): 52.7 ± 2.9 nmol/min/mg | Quinone Reductase Specific Activity ([1]; 48 h, 60 μM): 68.0 ± 2.9 nmol/min/mg | Quinone Reductase Specific Activity ([1]; 48 h, 120 μM): 79.7 ± 0.28 nmol/min/mg | Quinone Reductase Specific Activity ([1]; 72 h, 30 μM): 40.4 ± 4.7 nmol/min/mg | Quinone Reductase Specific Activity ([1]; 72 h, 60 μM): 47.3 ± 4.6 nmol/min/mg | Quinone Reductase Specific Activity ([1]; 72 h, 120 μM): 75.0 ± 8.6 nmol/min/mg | fold induction at 30 µM ([1]; H9, 24 h): 1.1 | fold induction at 60 µM ([1]; H9, 24 h): 1.48 | fold induction at 120 µM ([1]; H9, 24 h): 1.93 | fold induction at 30 µM ([1]; H9, 48 h): 1.52 | fold induction at 60 µM ([1]; H9, 48 h): 1.96 | fold induction at 120 µM ([1]; H9, 48 h): 2.28 | fold induction at 30 µM ([1]; H9, 72 h): 0.86 | fold induction at 60 µM ([1]; H9, 72 h): 1.01 | fold induction at 120 µM ([1]; H9, 72 h): 1.6 | elevation of QR ([1]; dose- and time-dependent, H9 cells): least effective inducer of QR and GSH | irreversible inhibition of reverse transcriptase ([2]; kinetic behaviour): behaves kinetically as an irreversible inhibitor of RT | Ki ([2]; preincubation with TTP, experiment of FIG. 6, Kitz-Wilson): 15.6 µM | RT inactivation in the presence of poly(A):oligo(dT) ([2]; preincubation with poly(A):oligo(dT), FIG. 6 lower, listed as oltipraz): indistinguishable from rates of RT inactivation in its absence; also recorded: inconsistent with irreversible inhibition | Ki ([2]; preincubation, N=5 independent experiments): 25.9 ± 3.4 µM | kinact ([2]; preincubation, N=5 independent experiments, read-out: k3 (limiting rate of inactivation) (converted)): 1.44e-05 s⁻¹ | kinact ([2]; read-out: k3 (limiting rate of inactivation), preincubation with TTP, experiment of FIG. 6, Kitz-Wilson): 2.33e-05 s⁻¹ | Cmax ([3]; read-out: peak serum level): > 4 µM | peak serum level [3]: greater than 1 μg/ml
